These are literature values, as cited in patent US20240189256A1, “COMPOSITIONS FOR PRE-SURGICAL NUTRITIONAL SUPPLEMENTS” (TM Nutrition LLC, priority 2022, published 2024).

For series [1] the following is noted: given orally.
For series [2] the following is noted: unless sepsis is present.

As usually defined, the half-life is how long it takes for the measured level to halve. On to `N=C(N)NCCC[C@H](N)C(=O)O` [arginine], for which the half-life in series [1] was 1.5 to 2 h. Besides, the “supplementation safe and well tolerated up to” value in series [2] is reported as “up to 10 g/day”.
